Data on two molecules can be found in ChEMBL document CHEMBL1201862, “PubChem BioAssay data set” (2004).

Assay [1] concerns HEK293. Description: inhibitors of LMP1-driven NF-kB reporter, dose response, cell-based, HEK293, luciferase, cherry-pick (AID 588343). The class given is functional. The settings on record: Homo sapiens.
Assay [2] concerns the target T1, Hexokinase HKDC1 (Homo sapiens, UniProt Q2TB90).
T1 sequence (Q2TB90 whole entry): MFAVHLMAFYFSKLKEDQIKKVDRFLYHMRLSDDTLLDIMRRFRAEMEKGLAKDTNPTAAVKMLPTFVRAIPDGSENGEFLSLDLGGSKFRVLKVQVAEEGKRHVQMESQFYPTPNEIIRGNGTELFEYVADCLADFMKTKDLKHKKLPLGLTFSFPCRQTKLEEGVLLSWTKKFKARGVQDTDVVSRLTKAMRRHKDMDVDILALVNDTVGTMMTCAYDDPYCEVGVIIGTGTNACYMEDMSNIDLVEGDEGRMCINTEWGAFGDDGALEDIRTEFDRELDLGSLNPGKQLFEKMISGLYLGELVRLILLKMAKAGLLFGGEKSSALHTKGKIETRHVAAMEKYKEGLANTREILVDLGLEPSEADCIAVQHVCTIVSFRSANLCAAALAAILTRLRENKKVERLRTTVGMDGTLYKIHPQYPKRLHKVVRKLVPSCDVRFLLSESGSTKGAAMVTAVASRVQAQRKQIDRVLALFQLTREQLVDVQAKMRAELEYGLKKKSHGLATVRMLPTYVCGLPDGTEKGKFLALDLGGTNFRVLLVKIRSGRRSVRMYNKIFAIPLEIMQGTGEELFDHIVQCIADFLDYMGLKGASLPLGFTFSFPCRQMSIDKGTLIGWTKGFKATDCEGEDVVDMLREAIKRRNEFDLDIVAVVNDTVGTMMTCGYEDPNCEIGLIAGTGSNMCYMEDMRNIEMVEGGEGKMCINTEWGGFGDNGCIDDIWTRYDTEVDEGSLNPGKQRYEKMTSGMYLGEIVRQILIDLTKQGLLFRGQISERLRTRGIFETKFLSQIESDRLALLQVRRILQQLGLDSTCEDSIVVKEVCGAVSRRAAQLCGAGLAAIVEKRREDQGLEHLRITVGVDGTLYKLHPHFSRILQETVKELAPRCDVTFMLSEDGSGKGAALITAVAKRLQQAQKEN
Description: HKDC1 hexokinase activators, dose response, biochemical, W721R variant (AID 504730). The class given is functional.

For assay [3], the target named is Hexokinase-1 (Homo sapiens, UniProt P19367). In words: hexokinase 1 activators, dose response, selectivity assay for HKDC1 activator project, biochemical (AID 504762). The class given is functional.
In assay [4] the target is Nonstructural protein 1 (Influenza A virus, UniProt Q194T2). The assay is classed as functional, Influenza A virus (A/California/07/2009(H1N1)).
Assay [5] can be described thus: Luminescence Cell-Based Dose Confirmation to Identify Activators of 5'UTR Stem-Loop Driven Alpha-Synuclein mRNA Translation in H4 Neuroglioblastoma Cells. [Related pubchem assays: 1829 (Project Summary), 1814 (Primary HTS)]. The class given is functional.
The target of assay [6] is T2, RNA-binding protein pos-1 (Caenorhabditis elegans, UniProt G5EF15).
T2 sequence (G5EF15 whole entry): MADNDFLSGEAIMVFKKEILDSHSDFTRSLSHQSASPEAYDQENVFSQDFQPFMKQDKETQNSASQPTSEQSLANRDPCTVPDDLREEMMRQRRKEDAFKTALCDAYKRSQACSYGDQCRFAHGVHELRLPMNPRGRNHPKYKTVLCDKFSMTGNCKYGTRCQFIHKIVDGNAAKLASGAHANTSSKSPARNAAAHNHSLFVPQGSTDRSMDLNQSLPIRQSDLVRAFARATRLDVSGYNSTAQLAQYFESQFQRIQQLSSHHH
Description: inhibitors of POS-1/mex-3 RNA binding, dose response, biochemical, fluorescence polarization (AID 1964).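 Also: purified POS-1 fused to maltose binding protein made in E. coli; potency of compounds blocking POS-1 binding to fluorescent RNA.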 For orientation: In fluorescence polarisation assays a small probe gives low polarisation when free and higher when bound to something large.

Assay [7] concerns the target Troponin, cardiac muscle (Homo sapiens, UniProt P19429+P45379+P63316). Description: Fluorescence-based biochemical high throughput dose response assay for activators of the calcium sensitivity of cardiac Regulated Thin Filaments (RTF). [Related pubchem assays (depositor defined):AID493008, AID493018, AID504382, AID504383]. The assay is classed as protein-complex assay.

A short description of assay [8]: Luminescence Cell-Based Dose Response to Identify Activators of 5'UTR Stem-Loop Driven Prion Protein mRNA Translation in H4-C Neuroglioblastoma Cells. [Related pubchem assays: 1829 (Project Summary), 1814 (Primary HTS)]. The class given is functional.
The nature of assay [9]: Luminescence Cell-Based Dose Response HTS to Identify Activators of Luciferase Translation or Activity in H4 […] Cells. [Related pubchem assays: 1829 (Project Summary), 1814 (Primary HTS)]. The class given is functional.
Assay [10] is described as follows: Luminescence Cell-Based Dose Response to Identify Activators of Luciferase Translation or Activity in H4-C Neuroglioblastoma Cells. [Related pubchem assays: 1829 (Project Summary), 1814 (Primary HTS)]. The class given is functional.
Assay [11] concerns H4. In words: Luminescence Cell-Based Dose Response HTS to Identify Activators of 5'UTR Stem-Loop Driven Prion Protein mRNA Translation in H4 Neuroglioblastoma Cells. [Related pubchem assays: 1829 (Project Summary), 1814 (Primary HTS)]. The assay is classed as functional. The settings on record: Homo sapiens.
Assay [12] concerns the target T3, Zinc finger protein mex-5 (Caenorhabditis elegans, UniProt Q9XUB2).
T3 sequence (Q9XUB2 whole entry): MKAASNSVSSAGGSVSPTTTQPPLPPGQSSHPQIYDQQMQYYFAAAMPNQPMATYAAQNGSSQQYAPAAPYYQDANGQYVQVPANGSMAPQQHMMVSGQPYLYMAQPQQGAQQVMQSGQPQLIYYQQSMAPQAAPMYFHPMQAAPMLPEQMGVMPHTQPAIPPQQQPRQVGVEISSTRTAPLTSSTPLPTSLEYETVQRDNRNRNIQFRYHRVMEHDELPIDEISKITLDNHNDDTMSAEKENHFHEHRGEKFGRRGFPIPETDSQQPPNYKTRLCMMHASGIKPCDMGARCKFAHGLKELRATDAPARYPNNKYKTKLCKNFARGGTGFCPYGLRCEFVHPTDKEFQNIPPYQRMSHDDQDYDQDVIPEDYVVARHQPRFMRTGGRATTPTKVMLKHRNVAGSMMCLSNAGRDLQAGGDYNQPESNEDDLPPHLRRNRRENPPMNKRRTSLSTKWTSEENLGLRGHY
In words: MEX-5/TCR-2 RNA interaction inhibitors, dose response, biochemical, C. elegans, fluorescence polarization (AID 1960).

The source made the active and inactive calls. Rule as the data show it, for most assays here: actives have a measured EC50 and inactives only a lower limit.

Sequence of Nonstructural protein 1 (Q194T2 whole entry): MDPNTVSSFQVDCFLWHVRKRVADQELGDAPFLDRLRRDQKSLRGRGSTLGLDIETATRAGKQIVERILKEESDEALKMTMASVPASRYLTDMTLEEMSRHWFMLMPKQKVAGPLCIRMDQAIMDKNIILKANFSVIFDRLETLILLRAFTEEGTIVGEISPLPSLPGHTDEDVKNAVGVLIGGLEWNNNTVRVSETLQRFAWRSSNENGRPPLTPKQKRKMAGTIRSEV
Sequence of Hexokinase-1 (P19367 whole entry): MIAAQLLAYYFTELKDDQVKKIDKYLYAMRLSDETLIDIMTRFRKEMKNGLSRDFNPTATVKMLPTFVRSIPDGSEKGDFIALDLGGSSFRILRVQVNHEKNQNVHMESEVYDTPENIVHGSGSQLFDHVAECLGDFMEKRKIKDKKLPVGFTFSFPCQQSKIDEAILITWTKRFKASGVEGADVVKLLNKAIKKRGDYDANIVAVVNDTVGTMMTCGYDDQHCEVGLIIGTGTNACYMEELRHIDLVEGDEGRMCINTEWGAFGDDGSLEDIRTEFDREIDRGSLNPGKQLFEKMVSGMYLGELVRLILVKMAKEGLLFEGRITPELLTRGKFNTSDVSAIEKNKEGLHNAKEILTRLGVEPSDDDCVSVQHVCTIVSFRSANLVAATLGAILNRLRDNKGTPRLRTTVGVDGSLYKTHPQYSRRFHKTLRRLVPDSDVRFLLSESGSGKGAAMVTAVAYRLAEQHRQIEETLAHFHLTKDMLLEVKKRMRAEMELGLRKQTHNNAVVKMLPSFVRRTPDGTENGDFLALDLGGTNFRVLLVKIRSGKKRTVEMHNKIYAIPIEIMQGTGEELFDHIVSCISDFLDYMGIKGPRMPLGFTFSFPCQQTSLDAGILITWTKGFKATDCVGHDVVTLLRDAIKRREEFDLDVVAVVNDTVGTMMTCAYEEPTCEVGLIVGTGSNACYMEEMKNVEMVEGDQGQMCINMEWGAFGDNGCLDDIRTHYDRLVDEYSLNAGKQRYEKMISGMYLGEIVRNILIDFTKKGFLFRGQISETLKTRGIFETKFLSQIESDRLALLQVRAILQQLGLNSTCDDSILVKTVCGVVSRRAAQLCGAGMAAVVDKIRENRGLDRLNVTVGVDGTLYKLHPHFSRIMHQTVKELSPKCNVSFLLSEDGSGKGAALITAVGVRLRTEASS

As to `CC(=NNC(=S)N1CC2CCC(CC2)C1)c1nccs1`, the AC50 (usually the concentration giving half of the maximal activity seen) in [1] was 539 nM (active). Besides, the results for the EC50 in assay [2] and in assay [3] were 1830 nM (active) and > 80000 nM (inactive), respectively. For the same molecule, the half-maximal inhibitory concentration (IC50) (usually the concentration that inhibits the measured activity by half) in assay [4] is 13000 nM (active).

As to `CN1C(=O)/C(=C/c2ccc(N3CCCCCC3)o2)C(=O)NC1=S`, the half-maximal effective concentration (EC50) (commonly the concentration needed to bring the measured effect to its halfway point) in assay [5] is 206 nM (active); in assay [6] it was > 300000 nM (not active); in assay [7], 2220 nM (active); in assay [8], 325 nM (active); in assay [9], < 100 nM (active); in assay [10] it was 462 nM (active). The figures for the concentration for a half-maximal effect (EC50) in assay [11] and in assay [12] were 39500 nM (active) and > 300000 nM (inconclusive), respectively.
